Reference: article PMC5187916, “Discovery of a New Class of Cathepsin K Inhibitors in Rhizoma Drynariae as Potential Candidates for the Treatment of Osteoporosis” (International Journal of Molecular Sciences, 2016)

Experiments:
Cathepsin K [1] = target: T1, Cathepsin K (Homo sapiens, UniProt P43235); assay: fluorescence enzyme assay with recombinant human Ctsk, LR-AFC substrate; assay type: biochemical
T1 construct: gene CTSK
T1 sequence (P43235 115-329): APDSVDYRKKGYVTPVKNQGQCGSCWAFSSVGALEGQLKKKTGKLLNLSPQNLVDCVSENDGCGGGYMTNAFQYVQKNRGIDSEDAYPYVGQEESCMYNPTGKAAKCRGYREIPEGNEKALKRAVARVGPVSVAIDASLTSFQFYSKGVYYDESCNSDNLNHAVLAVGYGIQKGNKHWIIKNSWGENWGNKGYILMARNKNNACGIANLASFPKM

Cathepsin K [2] = target: T1, Cathepsin K; assay: fluorescence enzyme assay with recombinant human Ctsk, LR-AFC substrate (kit positive control); assay type: biochemical

**Q.** Which IC50 (Cathepsin K [1]) does the source give for `C=C(C)[C@H](CC=C(C)C)Cc1c(O)cc(O)c2c1O[C@H](c1ccc(O)cc1O)CC2=O` [SG, Sophoraflavanone G] here?
**A.** 27.2 µM

**Q.** FF-FMK was tested. Which IC50 (Cathepsin K [2]) did it give?
**A.** 0.047 µM

**Q.** How did the IC50 (Cathepsin K [1]) turn out when `C=C(C)C(CC=C(C)C)Cc1c(O)cc2c(c1O)C(=O)CC(c1ccc(O)cc1O)O2` (stereo not drawn) [KF, Kushennol F] was run?
**A.** 8.79 µM
